Data from PubChem BioAssay AID1259407 (Chemical Carcinogenesis Research Information System (CCRIS), 2018).
Activity calls are given as the source filed them. No rule for the calls is given here.

System: CCRIS mutagenicity, Ames/micronucleus/aberration tests
Assay: CCRIS mutagenicity studies
[1] = Test System: AMES SALMONELLA TYPHIMURIUM, Strain/Indicator: TA98, Metabolic Activation: NONE, Method: PREINCUBATION
[2] = Test System: AMES SALMONELLA TYPHIMURIUM, Strain/Indicator: TA98, Metabolic Activation: RAT, LIVER, S-9, PCB, Method: PREINCUBATION
[3] = Test System: AMES SALMONELLA TYPHIMURIUM, Strain/Indicator: TA100, Metabolic Activation: NONE, Method: PREINCUBATION
[4] = Test System: AMES SALMONELLA TYPHIMURIUM, Strain/Indicator: TA100, Metabolic Activation: RAT, LIVER, S-9, PCB, Method: PREINCUBATION
[5] = Test System: E. COLI, Strain/Indicator: WP2 UVRA, Metabolic Activation: NONE, Method: STANDARD PLATE

Nc1ccc(Cl)cc1N
mutagenic call (End Point: IN VITRO CHROMOSOMAL ABERRATIONS, Test System: CHL CELLS, Metabolic Activation: NONE): active; positive (structural changes) | mutagenic call (End Point: IN VITRO CHROMOSOMAL ABERRATIONS, Test System: CHL CELLS, Metabolic Activation: RAT, LIVER, S-9, SODIUM PHENOBARBITAL AND 5,6-BENZOFLAVONE): active; positive (structural changes) | mutagenic call (End Point: IN VITRO CHROMOSOMAL ABERRATIONS, Test System: CHO-LB CELLS, Metabolic Activation: NONE): active; positive | mutagenic call (End Point: IN VITRO CHROMOSOMAL ABERRATIONS, Test System: CHO-LB CELLS, Metabolic Activation: RAT, LIVER, S-9, AROCLOR 1254): inactive; negative | mutagenic call (End Point: IN VIVO MICRONUCLEUS, Test System: HEPATOCYTES, Species: RAT, Strain/Sex: FISHER 344 OR SD/MALE, Route: ORAL OR IP): inactive; negative | mutagenic call (End Point: IN VIVO MICRONUCLEUS, Test System: PERIPHERAL BLOOD RETICULOCYTES, Species: RAT, Strain/Sex: FISHER 344 OR SD/MALE, Route: ORAL OR IP): inactive; negative | mutagenic call (Test System: AMES SALMONELLA TYPHIMURIUM, Strain/Indicator: TA97, Metabolic Activation: HAMSTER, LIVER, S-9, AROCLOR 1254 (10%), Method: PREINCUBATION): active; positive | mutagenic call (Test System: AMES SALMONELLA TYPHIMURIUM, Strain/Indicator: TA97, Metabolic Activation: NONE, Method: PREINCUBATION): inactive; negative | mutagenic call (Test System: AMES SALMONELLA TYPHIMURIUM, Strain/Indicator: TA97, Metabolic Activation: RAT, LIVER, S-9, AROCLOR 1254 (10%), Method: PREINCUBATION): active; positive | mutagenic call (Test System: AMES SALMONELLA TYPHIMURIUM, Strain/Indicator: TA98, Metabolic Activation: HAMSTER, LIVER, S-9, AROCLOR 1254 (10%), Method: PREINCUBATION): active; positive | mutagenic call [1]: inactive; negative | mutagenic call (Test System: AMES SALMONELLA TYPHIMURIUM, Strain/Indicator: TA98, Metabolic Activation: RAT, LIVER, S-9, AROCLOR 1254 (10%), Method: PREINCUBATION): active; positive | mutagenic call [2]: active; positive | mutagenic call (Test System: AMES SALMONELLA TYPHIMURIUM, Strain/Indicator: TA100, Metabolic Activation: HAMSTER, LIVER, S-9, AROCLOR 1254 (10%), Method: PREINCUBATION): active; positive | mutagenic call [3]: inactive; negative | mutagenic call (Test System: AMES SALMONELLA TYPHIMURIUM, Strain/Indicator: TA100, Metabolic Activation: RAT, LIVER, S-9, AROCLOR 1254 (10%), Method: PREINCUBATION): active; positive | mutagenic call [4]: active; positive | mutagenic call (Test System: AMES SALMONELLA TYPHIMURIUM, Strain/Indicator: TA1535, Metabolic Activation: HAMSTER, LIVER, S-9, AROCLOR 1254 (10%), Method: PREINCUBATION): inactive; negative | mutagenic call (Test System: AMES SALMONELLA TYPHIMURIUM, Strain/Indicator: TA1535, Metabolic Activation: NONE, Method: PREINCUBATION): inactive; negative | mutagenic call (Test System: AMES SALMONELLA TYPHIMURIUM, Strain/Indicator: TA1535, Metabolic Activation: RAT, LIVER, S-9, AROCLOR 1254 (10%), Method: PREINCUBATION): inactive; negative | mutagenic call (Test System: E. COLI, Strain/Indicator: WP2 UVRA, Metabolic Activation: HAMSTER, LIVER, S-9, AROCLOR 1254, Method: STANDARD PLATE): inactive; negative | mutagenic call (Test System: E. COLI, Strain/Indicator: WP2 UVRA, Metabolic Activation: MOUSE, LIVER, S-9, AROCLOR 1254, Method: STANDARD PLATE): inactive; negative | mutagenic call (Test System: E. COLI, Strain/Indicator: WP2 UVRA, Metabolic Activation: MOUSE, LIVER, S-9, Method: STANDARD PLATE): inactive; negative | mutagenic call [5]: inactive; negative | mutagenic call (Test System: E. COLI, Strain/Indicator: WP2 UVRA, Metabolic Activation: RAT, LIVER, S-9, Method: STANDARD PLATE): inactive; negative | mutagenic call (Test System: UDS RODENT HEPATOCYTES, Strain/Indicator: THY INCORP (NON-S-PHASE), Metabolic Activation: NONE, Method: AUTORADIOGRAPHY): active; positive

COP(=O)(OC)OC=C(Cl)Cl
mutagenic call (End Point: IN VITRO CHROMOSOMAL ABERRATIONS, Test System: CHO CELLS, Metabolic Activation: NONE): active; positive | mutagenic call (End Point: IN VITRO CHROMOSOMAL ABERRATIONS, Test System: CHO CELLS, Metabolic Activation: RAT, LIVER, S-9, AROCLOR 1254): active; positive | mutagenic call (End Point: In vivo micronucleus, Test System: Erythrocytes, Species: Mouse, Strain/Sex: Males and females (Strain not identified by DPR), Route: Intraperitoneal): inactive; negative | mutagenic call (Test System: AMES SALMONELLA TYPHIMURIUM, Strain/Indicator: TA98, Metabolic Activation: HAMSTER, LIVER, S-9, AROCLOR 1254 (30%), Method: PREINCUBATION): inactive; negative | mutagenic call [1]: inactive; negative | mutagenic call (Test System: AMES SALMONELLA TYPHIMURIUM, Strain/Indicator: TA98, Metabolic Activation: RAT, LIVER, S-9, AROCLOR 1254 (30%), Method: PREINCUBATION): inactive; negative | mutagenic call (Test System: AMES SALMONELLA TYPHIMURIUM, Strain/Indicator: TA100, Metabolic Activation: HAMSTER, LIVER, S-9, AROCLOR 1254 (30%), Method: PREINCUBATION): active; positive | mutagenic call [3]: active; positive | mutagenic call (Test System: AMES SALMONELLA TYPHIMURIUM, Strain/Indicator: TA100, Metabolic Activation: RAT, LIVER, S-9, AROCLOR 1254 (30%), Method: PREINCUBATION): active; positive | mutagenic call (Test System: AMES SALMONELLA TYPHIMURIUM, Strain/Indicator: TA100, Metabolic Activation: S-9, Method: STANDARD PLATE): active; positive | mutagenic call (Test System: CHINESE HAMSTER OVARY, Strain/Indicator: CHO-K1-BH4 (HGPRT)/6-THIOGUANINE, Metabolic Activation: NONE): active; positive | mutagenic call (Test System: CHINESE HAMSTER OVARY, Strain/Indicator: CHO-K1-BH4 (HGPRT)/6-THIOGUANINE, Metabolic Activation: S-9): active; positive | mutagenic call (Test System: CHINESE HAMSTER V-79, Strain/Indicator: V-79/OUABAIN, Metabolic Activation: NONE): inactive; negative | mutagenic call (Test System: E. COLI, Strain/Indicator: WP2, Metabolic Activation: NONE, Method: FLUCTUATION): active; positive | mutagenic call (Test System: E. COLI, Strain/Indicator: WP2, Metabolic Activation: NONE, Method: PREINCUBATION): active; positive | mutagenic call (Test System: E. COLI, Strain/Indicator: WP2, Metabolic Activation: NONE, Method: STANDARD PLATE): active; positive | mutagenic call (Test System: E. COLI, Strain/Indicator: WP2, Metabolic Activation: RAT, LIVER, S-9, AROCLOR 1254, Method: STANDARD PLATE): active; positive | mutagenic call (Test System: E. COLI, Strain/Indicator: WP2 UVRA, Metabolic Activation: NONE, Method: FLUCTUATION): active; positive | mutagenic call (Test System: E. COLI, Strain/Indicator: WP2 UVRA, Metabolic Activation: NONE, Method: PREINCUBATION): active; positive | mutagenic call [5]: active; positive | mutagenic call (Test System: MOUSE LYMPHOMA, Strain/Indicator: L5178Y (TK+/TK-), Metabolic Activation: NONE, Method: SUSPENSION/PLATE): active; positive | mutagenic call (Test System: Mouse lymphoma, Strain/Indicator: L5178Y (TK+/TK-), Metabolic Activation: None): active; positive | mutagenic call (Test System: Mouse lymphoma, Strain/Indicator: L5178Y (TK+/TK-), Metabolic Activation: Rat, Liver, S-9): active; positive | mutagenic call (Test System: UDS HUMAN CELLS, Strain/Indicator: EUE LINE/THY INCORP, Metabolic Activation: NONE, Method: AUTORADIOGRAPHY): active; positive | mutagenic call (Test System: UDS MOUSE FORESTOMACH EPITHELIUM, Strain/Indicator: THY INCORP, Metabolic Activation: NONE, Method: AUTORADIOGRAPHY): inactive; negative | mutagenic call (Test System: UDS RAT HEPATOCYTES, Strain/Indicator: BROMODEOXYURIDINE INCORP, Metabolic Activation: NONE, Method: FLOW CYTOMETRIC ANALYSIS): inactive; negative | mutagenic call (Test System: UDS RAT HEPATOCYTES, Strain/Indicator: THY INCORP, Metabolic Activation: NONE, Method: AUTORADIOGRAPHY): inactive; negative

CC(=O)OCc1c(O)cc2c(c1O)C(=O)c1ccccc1C2=O
mutagenic call [1]: active; positive | mutagenic call [2]: active; positive | mutagenic call [3]: active; positive | mutagenic call [4]: active; positive

CC[C@@H](C)OS(C)(=O)=O
mutagenic call (Test System: AMES SALMONELLA TYPHIMURIUM, Strain/Indicator: TA100, Metabolic Activation: NONE, Method: STANDARD PLATE): inactive; negative | mutagenic call (Test System: AMES SALMONELLA TYPHIMURIUM, Strain/Indicator: TA1535, Metabolic Activation: NONE, Method: STANDARD PLATE): active; positive | mutagenic call (Test System: CHINESE HAMSTER V-79, Strain/Indicator: V-79/6-THIOGUANINE, Metabolic Activation: NONE): active; positive
